These results are taken from patent US12492181B2, “Gem-disubstituted piperidine melanocortin subtype-2 receptor (MC2R) antagonists and uses thereof” (Crinetics Pharmaceuticals, Inc., priority 2019, dated 2025).

In the test the target is T1, hMC2 receptor (crude hMC2R membranes from CRE-bla-CHO-K1 cells stably expressing hMC2 receptor and hMRAP accessory protein) (Homo sapiens, UniProt Q01718).
T1 construct: crude membrane fractions
T1 sequence (Q01718 whole entry): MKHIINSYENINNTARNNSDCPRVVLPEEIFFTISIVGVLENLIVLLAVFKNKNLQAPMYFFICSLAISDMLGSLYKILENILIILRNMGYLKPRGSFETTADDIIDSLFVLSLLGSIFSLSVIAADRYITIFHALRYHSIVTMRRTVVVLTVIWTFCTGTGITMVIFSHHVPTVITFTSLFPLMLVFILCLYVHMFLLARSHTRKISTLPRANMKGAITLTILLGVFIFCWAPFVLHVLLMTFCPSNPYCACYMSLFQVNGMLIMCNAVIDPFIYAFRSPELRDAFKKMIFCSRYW
T1 sequence (Q8TCY5 whole entry partner): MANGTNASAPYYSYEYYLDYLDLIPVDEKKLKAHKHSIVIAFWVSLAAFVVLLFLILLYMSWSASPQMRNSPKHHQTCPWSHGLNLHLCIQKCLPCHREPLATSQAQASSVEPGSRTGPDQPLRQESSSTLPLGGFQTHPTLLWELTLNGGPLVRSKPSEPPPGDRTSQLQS
Put plainly: hMC2 membrane binding assay ([125I]ACTH (1-39) Tyr23, SPA). As to conditions: displacement of 0.2 nM [125I]ACTH (1-39) Tyr23 from hMC2R membranes, 1.5 hours at room temperature; read-out: MC2R binding potency. In outline: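 Ki values come from non-linear regression of SPA scintillation counts, with compounds displacing [125I]ACTH(1-39) Tyr23. Membranes come from CRE-bla-CHO-K1 cells stably expressing hMC2 receptor together with hMRAP. They are preincubated with WGA-coated PVT SPA beads in 50 mM HEPES pH 7.4 with 0.20% BSA, Mg2+, Ca2+ and protease inhibitors.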
Turning to `CNCCNC(=O)C1(c2ccc(-c3cccn3C)nc2)CCN(c2ccc(C(F)(F)F)cc2Cl)CC1` [Compound 1-283, 1-[2-chloro-4-(trifluoromethyl)phenyl]-4-[6-(1-methyl-1H-pyrrol-2-yl)pyridin-3-yl]-N-[2-(methylamino)ethyl]piperidine-4-carboxamide], the Ki was below 10 nM.
With `C[C@@H](CN(C)C)NC(=O)C1(c2cnc(-c3cccn3C)c(F)c2)CCN(c2ccc(C(F)(F)F)cc2C#N)CC1` [Compound 1-324, 1-[2-cyano-4-(trifluoromethyl)phenyl]-N-[(2S)-1-(dimethylamino)propan-2-yl]-4-[5-fluoro-6-(1-methyl-1H-pyrrol-2-yl)pyridin-3-yl]piperidine-4-carboxamide] the figure was below 10 nM; with `CCOc1ncccc1-c1ccc(C2(C(=O)NCCNC)CCN(c3ccc(C(F)(F)F)cc3Cl)CC2)cn1` [Compound 1-225, 1-[2-chloro-4-(trifluoromethyl)phenyl]-4-{2′-ethoxy-[2,3′-bipyridin]-5-yl}-N-[2-(methylamino)ethyl]piperidine-4-carboxamide], below 10 nM.
Take `CN1CC[C@H](NC(=O)C2(c3ccc(-c4cccn4C4CC4)nc3)CCN(c3ccc(C(F)(F)F)cc3C#N)CC2)C1` [Compound 1-158, 1-[2-cyano-4-(trifluoromethyl)phenyl]-4-[6-(1-cyclopropyl-1H-pyrrol-2-yl)pyridin-3-yl]-N-[(3S)-1-methylpyrrolidin-3-yl]piperidine-4-carboxamide]: the Ki is below 10 nM.
In the case of `CN1C[C@H](F)C[C@H]1CNC(=O)C1(c2ccc(-c3cccn3C)nc2)CCN(c2ccc(C(F)(F)F)cc2C#N)CC1` [Compound 1-278, 1-[2-cyano-4-(trifluoromethyl)phenyl]-N-{[(2S,4R)-4-fluoro-1-methylpyrrolidin-2-yl]methyl}-4-[6-(1-methyl-1H-pyrrol-2-yl)pyridin-3-yl]piperidine-4-carboxamide] it was below 10 nM; in that of `CNCCNC(=O)C1(c2ccc(-c3cccnc3OC)nc2)CCN(c2ccc(C(F)(F)F)cc2F)CC1` [Compound 1-272, 1-[2-fluoro-4-(trifluoromethyl)phenyl]-4-{2′-methoxy-[2,3′-bipyridin]-5-yl}-N-[2-(methylamino)ethyl]piperidine-4-carboxamide], below 10 nM.
In the case of `COc1ccccc1-c1ncc(C2(C(=O)NCCN(C)C)CCN(c3ccc(C(F)(F)F)cc3C#N)CC2)cc1F` [Compound 1-198, 1-[2-cyano-4-(trifluoromethyl)phenyl]-N-[2-(dimethylamino)ethyl]-4-[5-fluoro-6-(2-methoxyphenyl)pyridin-3-yl]piperidine-4-carboxamide] it was below 10 nM; in that of `CN1CCC[C@H]1CNC(=O)C1(c2ccc(-c3cccn3C)nc2)CCN(c2ccc(C(F)(F)F)cc2C#N)CC1` [Compound 1-229, 1-[2-cyano-4-(trifluoromethyl)phenyl]-4-[6-(1-methyl-1H-pyrrol-2-yl)pyridin-3-yl]-N-{[(2S)-1-methylpyrrolidin-2-yl]methyl}piperidine-4-carboxamide], 10 to 100 nM.
In the case of `CN1CC(CNC(=O)C2(c3ccc(-c4cccn4C)nc3)CCN(c3ccc(C(F)(F)F)cc3C#N)CC2)C1` [Compound 1-220, 1-[2-cyano-4-(trifluoromethyl)phenyl]-4-[6-(1-methyl-1H-pyrrol-2-yl)pyridin-3-yl]-N-[(1-methylazetidin-3-yl)methyl]piperidine-4-carboxamide] it was below 10 nM; in that of `CCOc1ccccc1-c1ccc(C2(C(=O)NCCNC)CCN(c3ccc(C(F)(F)F)cc3F)CC2)cn1` [Compound 1-227, 4-[6-(2-ethoxyphenyl)pyridin-3-yl]-1-[2-fluoro-4-(trifluoromethyl)phenyl]-N-[2-(methylamino)ethyl]piperidine-4-carboxamide], below 10 nM; in that of `COc1ccccc1-c1ccc(C2(C(=O)N[C@@H]3CCN(C)C3)CCN(c3ccc(C(F)(F)F)cc3C#N)CC2)cn1` [Compound 1-52, 1-[2-cyano-4-(trifluoromethyl)phenyl]-4-[6-(2-methoxyphenyl)pyridin-3-yl]-N-[(3R)-1-methylpyrrolidin-3-yl]piperidine-4-carboxamide], below 10 nM.
With `CN1CC[C@@H](OC(=O)NC2(c3ccc(-c4cccn4C)nc3)CCN(c3ccc(C(F)(F)F)cc3C#N)CC2)C1` [Compound 2-41, (3R)-1-methylpyrrolidin-3-yl N-{1-[2-cyano-4-(trifluoromethyl)phenyl]-4-[6-(1-methyl-1H-pyrrol-2-yl)pyridin-3-yl]piperidin-4-yl}carbamate], the Ki was below 10 nM.
With `COc1ccccc1-c1ccc(C2(C(=O)N[C@@H]3CN4CCC3CC4)CCN(c3ccc(C(F)(F)F)cc3C#N)CC2)cn1` [Compound 1-218, N-[(3S)-1-azabicyclo[2.2.2]octan-3-yl]-1-[2-cyano-4-(trifluoromethyl)phenyl]-4-[6-(2-methoxyphenyl)pyridin-3-yl]piperidine-4-carboxamide] the figure was below 10 nM.
With `CCOc1ncccc1-c1ccc(C2(C(=O)N[C@H]3CCN(C)C3)CCN(c3ccc(C(F)(F)F)cc3)CC2)cn1` [Compound 1-33, 4-{2′-ethoxy-[2,3′-bipyridin]-5-yl}-N-[(3S)-1-methylpyrrolidin-3-yl]-1-[4-(trifluoromethyl)phenyl]piperidine-4-carboxamide] the figure was below 10 nM; with `CCOc1ncccc1-c1ccc(C2(NC(=O)O[C@H]3CCN(C)C3)CCN(c3ccc(C(F)(F)F)cc3C#N)CC2)cn1` [Compound 2-18, (3S)-1-methylpyrrolidin-3-yl N-{1-[2-cyano-4-(trifluoromethyl)phenyl]-4-{2′-ethoxy-[2,3′-bipyridin]-5-yl}piperidin-4-yl}carbamate], below 10 nM; with `CN1CC[C@H](NC(=O)C2(c3ccc(-c4cccn4C)nc3)CCN(c3ccc(C(F)(F)F)cc3F)CC2)C1` [Compound 1-173, 1-[2-fluoro-4-(trifluoromethyl)phenyl]-4-[6-(1-methyl-1H-pyrrol-2-yl)pyridin-3-yl]-N-[(3S)-1-methylpyrrolidin-3-yl]piperidine-4-carboxamide], below 10 nM.
For the molecule `COc1sccc1-c1ccc(C2(C(=O)N[C@H]3CCN(C)C3)CCN(c3ccc(C(F)(F)F)cc3Cl)CC2)cn1` [Compound 1-167, 1-[2-chloro-4-(trifluoromethyl)phenyl]-4-[6-(2-methoxythiophen-3-yl)pyridin-3-yl]-N-[(3S)-1-methylpyrrolidin-3-yl]piperidine-4-carboxamide], the Ki is below 10 nM.
Regarding `CN1CC[C@H](NC(=O)C2(c3cnc(-c4cccn4C)c(F)c3)CCN(c3ccc(C(F)(F)F)cc3C#N)CC2)C1` [Compound 1-161, 1-[2-cyano-4-(trifluoromethyl)phenyl]-4-[5-fluoro-6-(1-methyl-1H-pyrrol-2-yl)pyridin-3-yl]-N-[(3S)-1-methylpyrrolidin-3-yl]piperidine-4-carboxamide], the Ki was below 10 nM.
With `CCOc1ncccc1-c1ccc(C2(C(=O)N[C@@H]3CCNC3)CCN(c3ccc(C(F)(F)F)cc3C#N)CC2)cc1` [Compound 1-2, 1-[2-cyano-4-(trifluoromethyl)phenyl]-4-[4-(2-ethoxypyridin-3-yl)phenyl]-N-[(3R)-pyrrolidin-3-yl]piperidine-4-carboxamide] the figure was below 10 nM.
